Literature values as cited in patent publication US20060106545A1, “Methods of clustering proteins” (Jubilant Biosys Ltd., priority 2004, published 2006).

Columns and labels:
[1] = test system: MKK (Mitogen activated protein kinase kinase)
[2] = target: MAPK2 (Mitogen-activated protein kinase 2) (Homo sapiens, UniProt P28482)
[3] = target: CK2 (Casein kinase 2) (Homo sapiens, UniProt P68400)
[4] = target: PKB (Protein kinase B) (Homo sapiens, UniProt P31749)
[5] = test system: SAPK2; details: kinase SAPK2
[6] = target: T1, SAPK3 (Stress-activated protein kinase 3) (Homo sapiens, UniProt P53778)
T1 sequence (P53778 1-367): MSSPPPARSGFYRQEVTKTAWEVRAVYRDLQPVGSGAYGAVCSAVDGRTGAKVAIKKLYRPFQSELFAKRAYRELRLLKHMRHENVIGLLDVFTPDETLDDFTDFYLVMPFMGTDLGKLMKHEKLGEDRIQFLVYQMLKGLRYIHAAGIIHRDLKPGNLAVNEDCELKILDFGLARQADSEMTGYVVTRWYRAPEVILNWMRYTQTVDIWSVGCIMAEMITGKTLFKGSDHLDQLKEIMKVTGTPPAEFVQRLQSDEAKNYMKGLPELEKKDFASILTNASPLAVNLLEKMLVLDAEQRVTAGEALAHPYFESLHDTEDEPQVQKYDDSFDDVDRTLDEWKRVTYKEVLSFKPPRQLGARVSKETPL

CK2 (Casein kinase 2), sequence (P68400 whole entry): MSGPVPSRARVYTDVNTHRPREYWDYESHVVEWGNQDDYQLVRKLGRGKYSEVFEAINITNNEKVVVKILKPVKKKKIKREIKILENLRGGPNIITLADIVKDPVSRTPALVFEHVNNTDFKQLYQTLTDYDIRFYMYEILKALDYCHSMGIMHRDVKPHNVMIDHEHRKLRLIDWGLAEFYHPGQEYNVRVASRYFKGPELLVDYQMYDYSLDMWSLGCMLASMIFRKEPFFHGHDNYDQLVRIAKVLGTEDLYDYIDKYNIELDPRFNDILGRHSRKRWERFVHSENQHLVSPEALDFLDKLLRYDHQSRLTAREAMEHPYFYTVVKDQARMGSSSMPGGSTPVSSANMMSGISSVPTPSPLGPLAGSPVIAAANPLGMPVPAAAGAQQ
MAPK2 (Mitogen-activated protein kinase 2), sequence (P28482 whole entry): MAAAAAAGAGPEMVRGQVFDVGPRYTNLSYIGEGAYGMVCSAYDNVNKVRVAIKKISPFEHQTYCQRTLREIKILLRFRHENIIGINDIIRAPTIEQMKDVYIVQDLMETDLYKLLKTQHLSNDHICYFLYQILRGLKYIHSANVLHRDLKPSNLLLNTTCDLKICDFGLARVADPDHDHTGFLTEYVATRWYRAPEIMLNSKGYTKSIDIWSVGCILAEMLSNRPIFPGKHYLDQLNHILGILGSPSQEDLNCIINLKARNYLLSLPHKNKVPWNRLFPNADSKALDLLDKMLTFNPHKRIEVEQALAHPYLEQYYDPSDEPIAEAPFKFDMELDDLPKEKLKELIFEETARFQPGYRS
PKB (Protein kinase B), sequence (P31749 whole entry): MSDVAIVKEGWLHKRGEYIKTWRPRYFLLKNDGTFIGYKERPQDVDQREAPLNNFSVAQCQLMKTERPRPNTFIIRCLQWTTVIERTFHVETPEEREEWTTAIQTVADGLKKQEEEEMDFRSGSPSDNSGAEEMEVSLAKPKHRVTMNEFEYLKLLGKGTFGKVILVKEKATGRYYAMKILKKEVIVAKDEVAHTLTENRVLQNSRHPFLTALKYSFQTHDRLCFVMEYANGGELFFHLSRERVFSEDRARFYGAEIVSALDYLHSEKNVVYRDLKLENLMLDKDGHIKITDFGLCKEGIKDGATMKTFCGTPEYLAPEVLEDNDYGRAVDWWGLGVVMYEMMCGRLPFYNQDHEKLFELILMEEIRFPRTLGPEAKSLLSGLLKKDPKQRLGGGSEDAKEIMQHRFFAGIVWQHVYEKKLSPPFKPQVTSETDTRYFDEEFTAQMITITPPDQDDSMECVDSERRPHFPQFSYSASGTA

| SMILES | % of Expression Bain et al. [1] [%] | % of Expression Bain et al., (2002) [2] | % of Expression Bain et al., (2002) [3] [%] | % of Expression Bain et al., (2002) [4] | % of Expression Bain et al. [5] [%] | percentage of expression, Bain et al., (2003) [6] |
| --- | --- | --- | --- | --- | --- | --- |
| O=C1Cc2c([nH]c3ccc(Br)cc23)-c2ccccc2N1 [Kenpaullone] | >80 | 60-80% | >80 | 40-60% | – | – |
| CC(C)[C@H](CO)Nc1nc(Nc2cccc(Cl)c2)c2ncn(C(C)C)c2n1 [Purvalanol] | – | – | – | – | >80 | more than 80% |
